The values that follow are results of earlier work, collected in patent US20070135390A1, “Phosphate derivatives” (priority 2003, published 2007).

For this data set the following is noted: printed as in vitro use.

For “Phenol, 2,6-bis(1-methylethyl)-, dihydrogen phosphate (9CI) [propofol phosphate]”, the induction of anesthesia result is “does not however induce anesthesia”.
